Source: patent US20260165976A1, “ANTI-EVAPORATIVE LIPID FORMULATIONS” (UNIVERSITY OF HELSINKI, priority 2022, published 2026)
“Also recorded” adds a separate entry of the source.

Tests used:
Type in all cases: physicochemical
[1] = Surface pressure isotherms and Brewster angle microscopy of films on a Langmuir trough; conditions: PBS subphase, 35±1° C.
Experimental: (§1) The lipid components and tailored mixtures dissolved in chloroform, or alternatively, the formulations undergoing characterization studies were spread onto the air-buffer interface of a Langmuir trough, either a Mini trough (KSV, Helsinki, Finland) or a Large trough (KSV NIMA, Biolin Scientific, Espoo, Finland), which was filled with PBS buffer. The samples were allowed to equilibrate for 3 min before starting the measurements. The surface pressure was measured using a Wilhelmy plate, the surface potential was measured using a KSV NIMA Surface Potential Sensor (Espoo, Finland) when relevant and Brewster angle microscopy (BAM) images were captured using a KSV NIMA microBAM (Espoo, Finland) instrument. The films were compressed at a constant rate of 5 or 10 mm/min and the subphase temperature was maintained at 35±1° C. The measurements were performed in an acrylic box under an ozone-free atmosphere to prevent undesired oxidation of the lipids. An ozone-free atmosphere was generated by passing dry air through ODS-3P ozone destruct unit (Ozone solutions, Hull, Iowa) and into the enclosure at a rate of 76 l/min.

[2] = Evaporation resistance / evaporation reduction of lipid films (modified Langmuir and Schaefer method); conditions: for evaporation resistance of OAHFA films: individual lipid film on PBS subphase, 35±1° C., FIG. 2; for evaporation resistance of phospholipid films: FIG. 13C
Experimental: as §1
The adaptive features of the formulations were uncovered through studying the spreading capabilities of the lipid films over compression-expansion cycles using the Langmuir setup. In more detail, the volume employed of each formulation was the volume required to observe a response in the surface pressure isotherm over one compression-expansion cycle. Altogether, the films were subjected to twenty compression-expansion cycles employing a 50 mm/min. compression/expansion rate and the changes in the surface pressure isotherms were monitored as described above. Evaporation resistance was determined by a modified Langmuir and Schaefer method (Langmuir et al, 1943, J Franklin Inst, 235, 119-162). The measurements were conducted by compressing the film to a specific mean molecular area, ranging between 2-40 Å^2/molecule (for individual compounds), or a specified area (for formulations) and placing a tailored desiccant cartridge, with a water-permeable membrane, approximately 2 mm above the aqueous surface. The commercial silica gel containing desiccant cartridges (SP Industries, Warminster, PA) were modified by replacing the membrane with a Millipore Immobilon-P PVDF membrane (450 nm pore size, Bedford, MA). The desiccant cartridge was fixed in position for 5 minutes and the mass of the absorbed water was determined by gravimetric techniques. In order to take into account the water absorbed from the air inside the enclosure, a second background measurement was conducted in parallel inside the enclosed acrylic box. From the measurements, the evaporation resistance was calculated with the equation (1).
The terms used in the equation are as follows: Adesicant=area of the desiccant cartridge; • t=measuring time; (w-w0)=water concentration difference between the aqueous surface and the surface of the desiccant cartridge; m(I)=water amount absorbed in the presence of the lipid film; mPBS(0)=water amount absorbed in the absence of the lipid film; Δmtot=mass of evaporated water during the measurement; ti=time point D=diffusion coefficient; ρ=water density; ATrough=area of the Langmuir Trough.
The evaporation reduction was determined as the total reduction of water absorbed by a desiccant cartridge when a lipid film was covering the subphase versus the situation when the lipid film was absent. Equation (2) was utilized in the calculations.

[3] = Differential scanning calorimetry (DSC) of active components, phospholipids and liposomal formulations; conditions: heating 10° C./min, triplicate; for Peak Tm1 ± SD / Onset Tm2 ± SD / Peak Tm2 ± SD: in °C (unit assumed)
Experimental: Differential scanning calorimetry (DSC 2500 with an RCS90 cooling unit; TA instruments, Newcastle, DE, USA) was utilized to study the thermal properties of the active compounds. Nitrogen (N2) was utilized as the purge gas at rate of 50 mL/min during the measurements. […] of the active components were placed into aluminum pans with manually made pin holes (DSC Consumables incorporated, Austin, Minnesota, USA). The samples were subsequently sealed and analyzed with DSC utilizing the TRIOS® software (TA instruments, Newcastle, DE, USA). All results were compared to an empty reference pan containing a pin hole. Each measurement was performed in triplicate. Briefly, the samples were cooled to 0° C., then heated from 0° C. to 75° C. at a rate of 10° C./min. Then, the samples were kept isothermally at 75° C. for 10 min, after which they were equilibrated to −50° C. at an uncontrolled rate. Ultimately, the samples were heated again to 75° C. at a rate of 10° C./min.
The phospholipid bilayer phase transition behavior was studied to assess whether successful integration of the active components into the phospholipid bilayer had been achieved or not. The studies were performed in a similar fashion as described for active components above. In this case, 20 μL of a formulation was pipetted into the aluminum pans (DSC Consumables incorporated, Austin, Minnesota, USA), which were subsequently sealed and analyzed with DSC employing the TRIOS® software (TA instruments, Newcastle, DE, USA). The samples were cooled and equilibrated to 5° C., then heated from 5° C. to 70-85° C. at a rate of 10° C./min and the results were compared to the reference pan containing the liquid used to hydrate the lipid film. All prepared liposomal formulations which viscosity were low enough to be pipetted, were analyzed by DSC and compared to the thermograms obtained from liposomes containing only the PC-component and the thermograms obtained for the active components.

Compound | Onset Tm1 ± SD [3] | Peak Tm1 ± SD [3] | evaporation resistance of OAHFA films [2] | other results
CCCCCCCCCCCCCCCCCC(=O)OC[C@H](COP(=O)(O)OC[C@H](N)C(=O)[O-])OC(=O)CCCCCCCCCCCCCCCCC.[Na+] [18:0 PS, 1,2-distearoyl-sn-glycero-3-phospho-L-serine (sodium salt)] |  |  |  | phase behaviour of the film (surface pressure isotherm, BAM) [1]: suitable properties
CCCCCCCC/C=C\CCCCCCCC(=O)OCCCCCCCCCCCCCCC(=O)O [15:0/18:1-OAHFA, 15-(oleoyloxy)pentadecanoic acid] |  |  | significantly weaker evaporation-resistant properties | 
CCCCCCCC/C=C\CCCCCCCC(=O)OCCCCCCCCCCCCCCCCCCCCCC(=O)O [22:0/18:1-OAHFA, 22-(oleoyloxy)docosanoic acid] |  |  | reasonable degree of evaporation resistance | 
CCCCCCCC/C=C\CCCCCCCCOC(=O)CCCCCCCCCCCCCCCCCCC(=O)O [R-20:0/18:1-OAHFA, 20-(oleyloxy)-20-oxo-eicosanoic acid] |  |  | reasonable degree of evaporation resistance | 
CCCCCCCCCCCCCCCCCC(=O)OC[C@H](COP(=O)([O-])OCC(O)CO)OC(=O)CCCCCCCCCCCCCCCCC.[Na+] (mixture of isomers) [18:0 PG, 1,2-distearoyl-sn-glycero-3-phospho-rac-(1-glycerol) sodium salt] |  |  |  | phase behaviour of the film (surface pressure isotherm, BAM) ([1]; sodium salt): suitable properties; also recorded: phase transition occurring at a low surface pressure; evaporation resistance of phospholipid films [2]: highest evaporation resistance
CCCCCCCCCCCCCCCCCCO [1-Octadecanol, octadecanol] | 56.49 ± 0.49 | 57.61 ± 0.22 |  | evaporation resistance of long chain fatty alcohols ([2]; FIG. 5): most promising species
CCCCCCCCCCCCCCCC(=O)OC[C@H](COP(=O)(O)OCCN)OC(=O)CCCCCCCCCCCCCCC [16:0 PE, 1,2-dipalmitoyl-sn-glycero-3-phosphoethanolamine] |  |  |  | phase behaviour of the film (surface pressure isotherm, BAM) [1]: suitable properties
CCCCCCCCCCCCCCCCCC(=O)OC[C@H](COP(=O)(O)OCCN)OC(=O)CCCCCCCCCCCCCCCCC [18:0 PE, 1,2-distearoyl-sn-glycero-3-phosphoethanolamine] |  |  |  | phase behaviour of the film (surface pressure isotherm, BAM) [1]: suitable properties; evaporation resistance of phospholipid films [2]: highest evaporation resistance
CCCCCCCC/C=C\CCCCCCCC(=O)OCCCCCCC/C=C\CCCCCCCCCCCCCCCCCCCC(=O)O [29:1/18:1-OAHFA, (21Z)-29-(oleoyloxy)nonacos-21-enoic acid] |  |  | reasonable degree of evaporation resistance | 
CCCCCCCC/C=C\CCCCCCCC(=O)OCCCCCCCCCCCC(=O)O [12:0/18:1-OAHFA, 12-(oleoyloxy)dodecanoic acid] |  |  | significantly weaker evaporation-resistant properties | 
CCCCCCCC/C=C\CCCCCCCC(=O)OCCCCCCC/C=C\CCCCCCCCCCC(=O)O [20:1/18:1-OAHFA, (12Z)-20-(oleoyloxy)eicos-12-enoic acid] |  |  | significantly weaker evaporation-resistant properties | phase behaviour of the film (surface pressure isotherm, BAM) [1]: does not undergo a phase transition; surface activity / spreading ability [1]: surface active lipids

More lines, main results first:

Onset Tm1 ± SD [3] | Peak Tm1 ± SD [3] | Compound | evaporation resistance of OAHFA films [2] | other results
34.48 ± 0.05 | 36.74 ± 0.92 | CCCCCCCC/C=C\CCCCCCCC(=O)OCCCCCCCCCCCCCCCCCCCCCC [BO, behenyl oleate] |  | 
63.04 ± 0.21 | 64.87 ± 0.05 | CCCCCCCCCCCCCCCCCCCC(=O)OC[C@H](COP(=O)([O-])OCC[N+](C)(C)C)OC(=O)CCCCCCCCCCCCCCCCCCC [DAPC, 1,2-diarachidoyl-sn-glycero-3-phosphatidylcholine] |  | 
50.13 ± 0.29 | 54.67 ± 0.18 | CCCCCCCCCCCCCCCCCC(=O)OC[C@H](COP(=O)([O-])OCC[N+](C)(C)C)OC(=O)CCCCCCCCCCCCCCCCC [DSPC, 1,2-distearoyl-sn-glycero-3-phosphocholine] |  | 
54.92 ± 0.87 | 56.50 ± 0.64 | CCCCCCCC/C=C\CCCCCCCC(=O)OCCCCCCCCCCCCCCCCCC(=O)O [18:0/18:1-OAHFA, 18-(oleoyloxy)octadecanoic acid] | displays evaporation resistance; also recorded: highest evaporation resistance | phase behaviour of the film (surface pressure isotherm, BAM) [1]: does undergo a liquid to solid phase transition; surface activity / spreading ability [1]: surface active lipids
55.00 ± 0.87 | 57.53 ± 0.95 | CCCCCCCC/C=C\CCCCCCCCOC(=O)CCCCCCCCCCCCCCCCC(=O)O [R-18:0/18:1-OAHFA, 18-(oleyloxy)-18-oxo-octadecanoic acid] | reasonable degree of evaporation resistance | Onset Tm2 ± SD [3]: 63.20 ± 0.28; Peak Tm2 ± SD [3]: 63.88 ± 0.14
41.65 ± 1.16 | 46.54 ± 0.18 | CCCCCCCC/C=C\CCCCCCCC(=O)OCCCCCCCCCCCCCCCCCCCC(=O)O [20:0/18:1-OAHFA, 20-(oleoyloxy)eicosanoic acid] | reasonable degree of evaporation resistance | Onset Tm2 ± SD [3]: 56.89 ± 1.42; Peak Tm2 ± SD [3]: 59.52 ± 0.38
17.37 ± 0.69 | 22.74 ± 1.57 | CCCCCCCCCCCCCC(=O)OC[C@H](COP(=O)([O-])OCC[N+](C)(C)C)OC(=O)CCCCCCCCCCCCC [DMPC, 1,2-dimyristoyl-sn-glycero-3-phosphocholine] |  | 
